Melting point data for 89 compounds are collected here from a melting point compilation (Tetko et al.; mined from patent text by program, amines drawn as free bases though some values may be those of a salt).

A value given as a limit tells only on which side of the number the result lay.

The term melting point denotes the temperature, or range, at which the solid turns liquid. For `O=S(=O)(c1ccc(Cl)cc1)N1CCCC1c1ccc(C(F)(F)F)cc1` (racemic), the melting point came out at 107 °C. The value for `O=c1cc(CCN2CCC(c3c[nH]c4ccccc34)CC2)c2cc([N+](=O)[O-])ccc2[nH]1` was 251 to 253 °C; that for `Cc1ccc(Cl)c(C)c1NC(=O)N=C1NC(=O)CN1C` was 140 to 142 °C. The value for `O=C(O)CCC(=O)NCCCCCC1CCSS1` (centres undefined) was 74 °C; that for `Cc1cc(C#N)cc(C(=O)Nc2ccc(F)c(C)c2)n1` was 177 °C; that for `CC(O)c1ccc(-c2ccc(OCc3ccc(Cl)cc3)cc2)cc1` (single isomer, unassigned; (+)) was 165 to 167 °C. The value for `O=C(O)c1ccc(S(=O)(=O)Oc2ccc(-c3ccc(-c4c(Cc5ccccc5)sc5ccccc45)cc3)cc2Br)cc1O` was 117 to 119 °C. `CCOC(=O)[C@@H]([C@H](N)C(=O)O)[C@@H](C)O` displayed a melting point of 150 to 151 °C.

With `O=C1c2ccccc2CN1CCCN1CC=C(c2ccccc2)CC1`, the melting point was 104 °C. Under `CCOC(=O)N1CC[C@@H](O)[C@H](c2ccccc2)C1` (relative stereo) stands 49.5 to 58 °C. Under `O=C1C(=CO)c2ccccc2N1c1cccc(Cl)c1` stands 175 to 178 °C; under `Nc1cc(C(F)(F)F)c(Br)cc1S(=O)(=O)c1ccccc1`, 169 to 171 °C. `CS(=O)(=O)c1ccc(Cn2ccc3c4c(N)nc(N)nc4ccc32)cc1` returned a melting point of 248 °C. Under `CC(C)C[C@H](NC(=O)OCc1ccccc1)C(=O)N[C@@H](Cc1ccccc1)C(=O)CS(C)=O` (some centres undefined) stands 97 to 102 °C; under `CC(CCCC(O)(C(F)(F)F)C(F)(F)F)C1CCC2C3C=CC4=CC(=O)C5OC5C4(C)C3CCC12C` (centres undefined), 181 to 184 °C; under `CCOc1c(C)c(N2CCN(c3ccc(OC)cc3)CC2)c(C)c2c1OC(C)(C)C2`, 151 to 153 °C.

Regarding `Cc1ccc(-c2ccc(-c3ccccc3)s2)s1`, the melting point turned out to be 102 °C.

The compound `O=C(O)Cn1cccc(OCc2ccccc2)c1=O` showed a melting point of 176 to 177 °C. In turn, `C[C@@H](NC(=O)c1sc(-c2ccc(C#N)cc2)nc1C(F)(F)F)[C@](O)(Cn1cncn1)c1ccc(F)cc1F` registered a melting point of 101 to 108 °C. As to `CCCCNc1c(C(=O)OCC)cnc2c1cnn2CC`, the melting point fell in the range of 82 to 83 °C. The value for `CCOC(=O)c1c(C(C)(C)C)oc(-c2ccccc2)c1-c1ccc(F)cc1` was 93 to 94 °C; that for `CCOC(=O)C(=O)Nc1ccc2c(c1)CC(=O)N2` was 235 to 237 °C. The value for `Cc1cc2[nH]c(=O)c(C(=O)O)nc2cc1-n1ccc(CNC(=O)Nc2ccc(C(=O)O)cc2)c1` was over 300 °C. Under `CCOCc1nc2c(N)nc3cc(-c4cccnc4)ccc3c2n1CC(C)C` stands 180 to 182 °C; under `CN1CCC(N=[N+]=[N-])(c2ccccc2)C(O)C1` (centres undefined), 170 to 171 °C; under `c1cnc2nc(-c3nccs3)ccc2c1`, 160 to 165 °C.

`O=C(O)Cc1cccc(NC(=O)NCC(=O)N2[C@@H](c3ccccc3)CC[C@H]2c2ccccc2)c1` returned a melting point of 152 °C. Compound `CCOC(=O)NC(Cc1ccccc1)C(O)C(=O)O` (centres undefined) yielded a melting point of 138 to 140 °C. The value for `CCc1nn2ccc3c(c2c1CC#N)CCO3` was 179 to 180 °C; that for `CC(C)(CC(O)(Cn1ccc(=O)c2ccccc21)C(F)(F)F)c1cc(F)ccc1OC(F)F` (centres undefined) was 150 to 155 °C.

Regarding `O=C1NC(=O)c2c1c(-c1ccccc1)cc1[nH]c3ccc(OP(=O)(O)O)cc3c21`, the melting point is 285 to 295 °C. The value for `CC(C(=O)N1c2ccccc2N(C)C(=O)c2cnc(-c3ccccc3)nc21)N1CCNCC1` (centres undefined) was 197 °C. As for `N#Cc1c(NC(=O)CO)cccc1NC(=O)CO`, the melting point fell in the range of 188 to 189 °C. The value for `CC[Si](CC)(CC)OC1C(=O)NC1c1cccs1` (centres undefined) was 70 to 71 °C; that for `CC(C)=NN=C(N)Nc1c(Cl)cccc1Cl` was 205 to 210 °C. Under `COCNC(=O)NC(=O)C(C#N)=NOC` stands 164 to 165 °C; under `COC(=O)c1ccccc1-c1cc(-c2ccc(Cl)cc2)no1`, 89.5 to 91 °C.

Compound `CCOC(=O)c1cn(-c2nc(NC(C)(C)C)c(F)cc2Cl)c2c(Cl)c(F)c(F)cc2c1=O` registered a melting point of 210 to 213 °C.

Consider `CCOc1ccc(-c2nc(-c3ccc(N)c(C(=O)O)c3)cs2)cc1OCC`, for which the melting point lay within 228 to 229 °C. `CCCCCCCC[C@H](N[C@@H](C)C(=O)O)C(=O)OCC` showed a melting point of 127 to 128 °C. `CN1CCN(S(=O)(=O)c2ccc([N+](=O)[O-])cc2[N+](=O)[O-])CC1` came in with a melting point of 164 to 165 °C. Under `O[C@H](CCl)CN=Cc1ccccc1` stands 46 °C. The value for `CS(=O)(=O)c1ccc(-c2cc(CCCO)nn2C2CCCCC2)cc1` was 138 °C; that for `COc1ccc2oc3ccc(C=O)cc3c(=O)c2c1` was 167 to 169 °C. The value for `CCN(CC)C(=O)Cc1c(-c2ccc(Br)cc2)nc2c(C)cc(C)nn12` was 171 to 175 °C; that for `Cc1nc2c(cc1C(=O)NC(=N)N)CCCCC2Cl` (centres undefined) was 153 to 156 °C. Turning to `O=C1COC2(CCN(CCc3c[nH]c4ccccc34)CC2)CN1`, the melting point is 48 to 50 °C. Under `CC(C)NCC(=O)Nc1cccc2c1C(=O)c1c(NC(=O)CNC(C)C)cccc1C2=O` stands 196 to 197 °C. Under `CCOC(=O)c1cc2c(cn1)[nH]c1ccc(N)c(N3CCCCC3)c12` stands 188 to 190 °C.

Take `CNC(=O)CC1(CC(=O)O)c2ccccc2C(=O)c2ccccc21`: the melting point fell in the range of 238 to 239 °C. The value for `O=C(O)c1cnn2c1NCC=C2c1cccc(C(F)(F)F)c1` was 175 to 177 °C; that for `NC(=O)Cc1ccccc1CSc1nc2ccccc2[nH]1` was 218 to 222 °C. Regarding `NCc1nc(-c2ncn3c2[C@@H]2CCN2C(=O)c2cc(F)ccc2-3)no1`, the melting point lay within 195 to 198 °C. Consider `CC(=O)S[C@@H]1C[C@@H](C(=O)N(CCc2ccccc2)CC(=O)O)N(S(=O)(=O)c2ccc3ccccc3c2)C1`, for which the melting point lay in the range of 190 to 193 °C. The value for `CCC1(c2cccc([N+](=O)[O-])c2)C(=O)NC(=O)NC1=O` was 283 to 284 °C.

Compound `CCCOc1c(OC)cc(C(C#N)CCC(C#N)c2cc(OC)c(OC)c(OC)c2)cc1SC` (centres undefined) came in with a melting point of 131 to 132 °C. `CN1CCC(O)(C2CC(c3ccc(-c4ccc(N5C[C@H](Cn6ccnn6)OC5=O)cc4F)cn3)=NO2)CC1` (some centres undefined) registered a melting point of 73 °C. `CC(C)(C)OC(=O)N1CC2CCCCC(C1)C2C(=O)O` (centres undefined) yielded a melting point of 218 to 222 °C. Under `CC(=O)NC1Cc2ccc(OC(=O)CCl)cc2C1` (centres undefined) stands 106 to 108 °C; under `CC(C)(C)OC(=O)NC[C@H](O)CC(=O)NN`, 144 °C.

For `CC1CCC(C)N1CCNc1ccnc2cc(Cl)ccc12` (centres undefined), the melting point fell in the range of 127 to 130 °C. `Cc1ccc2c(Sc3ccc(Cl)c(Cl)c3)c(C(=O)O)[nH]c2c1` gave a melting point of 252 to 255 °C.

As for `CC(C)(C)CNN(CC(C)(C)C)S(=O)(=O)c1nc(Cl)cs1`, the melting point was determined as 157 °C. The value for `COC(=O)CCCC#Cc1cc(Cl)ccc1NS(=O)(=O)c1ccc2nc(N)sc2c1` was 61 to 65 °C. Under `CS(=O)c1c(C(F)(F)F)nn(-c2c(Cl)cc(C(F)(F)F)cc2Cl)c1N` (centres undefined) stands 142 to 145 °C.

In turn, `O=Cc1ccc(O)c(OCc2ccccc2)c1` displayed a melting point of 123 to 124 °C. The value for `C=CCn1c(=O)c(C(=O)OCC)c(O)c2ccc(C)nc21` was 110 to 112 °C; that for `CCOc1ccc2c(c1)C(=O)N(c1ccc3c(ccn3C)c1)C2` was 185 to 190 °C; that for `COC(=O)c1sc2c(c1N)c1ccccc1c(=O)n2-c1ccccc1Cl` was 244 to 246 °C.

`CC(Cn1ncnn1)n1nnc2cc3c(=O)n(C(C)Cn4ncnn4)nnc3cc2c1=O` (centres undefined) showed a melting point of 64 to 66 °C. Under `CNc1nn(C)c2nc3n(c(=O)c12)CCS3` stands 255 to 256 °C; under `CCCC1=C(C(=O)OCC)C(c2cccc(Cl)c2C)c2c[nH]nc2N1` (centres undefined), 185 °C; under `Cc1cc(-c2ccc(Cl)c(OC3SCC(O)C(O)C3O)c2)ccn1` (centres undefined), 137 °C. Under `COc1ccc(NC(=O)c2coc(-c3ccncc3)c2)cc1N1CCN(C)CC1` stands 103 to 105 °C; under `O=c1cc(-c2ccc(OCc3ccccc3)cc2)oc2cc(OCc3ccccc3)cc(OCc3ccccc3)c12`, 60 to 62 °C.

In the case of `CC(=O)c1ccc2c(=O)c(Br)c(C)oc2c1`, the melting point was found to be 124 °C. As to `COC(=O)CC(NC1CC1)=C(C(=O)OC)C(=O)C(F)(F)F`, the melting point fell in the range of 51.5 to 52.5 °C. Turning to `C=CCc1cccc2c(=O)cc(-c3c(F)cccc3F)oc12`, the melting point fell in the range of 84 to 86 °C. Under `CC(C)(C)C(=O)NCc1cc(-c2ccc(Cl)c(Cl)c2)n(Cc2ccc(Cl)c(Cl)c2)n1` stands 56.5 °C. The value for `Cc1ccc(Nc2ncccc2O)cc1` was 134 to 135 °C. Under `CC12CCC3C(CC=C4CC(O)CCC43C)C1CC(Br)C2=O` (centres undefined) stands 167 to 168 °C; under `CC(C(=O)n1c(=O)oc2ccccc21)C(O)CCCl` (centres undefined), 116 to 117 °C; under `Cc1cccc2oc(C(O)[C@H](C)NC(=O)OCc3ccccc3)nc12` (some centres undefined), 98 °C. The compound `Brc1ccc(C=Cc2csc3ccccc23)s1` gave a melting point of 71.5 to 73 °C. The value for `CCOCc1nc2c(N)nc3ccc(OCc4ccccc4)cc3c2n1CC(C)(C)O` was 181 to 182 °C. The value for `CCOC(=O)COc1cc(OC)c2c(c1S(N)(=O)=O)OC1(CCCCC1)CC2=O` was 188 to 190 °C; that for `COC(=O)C(Cc1ccccc1)Oc1ccc2cc(CNC(=O)c3oc4ccccc4c3C)ccc2c1Br` (centres undefined) was 129 to 133 °C. The value for `CC(C)(C)CN1C(=O)CC(=O)N(c2ccccc2Cl)c2cc(Cl)ccc21` was 245 to 246 °C.

For `Cc1cc(C)c(C(C(N)=O)C(N)=O)c(C)c1`, the melting point is 177 to 179 °C.
